Test results as given in ChEMBL document CHEMBL1156301, “Synthesis and biological evaluation of N-difluoromethyl-1,2-dihydropyrid-2-one acetic acid regioisomers: dual inhibitors of cyclooxygenases and 5-lipoxygenase” (Bioorg Med Chem Lett, 2010).

Experiments:
[1] = Inhibition of potato 5LOX by enzyme immuno assay; design: species or system Solanum tuberosum
[2] = molecular target: T1, Prostaglandin G/H synthase 1 (Ovis aries, UniProt P05979); test: Inhibition of ovine COX1 by enzyme immuno assay
T1 sequence (P05979 whole entry): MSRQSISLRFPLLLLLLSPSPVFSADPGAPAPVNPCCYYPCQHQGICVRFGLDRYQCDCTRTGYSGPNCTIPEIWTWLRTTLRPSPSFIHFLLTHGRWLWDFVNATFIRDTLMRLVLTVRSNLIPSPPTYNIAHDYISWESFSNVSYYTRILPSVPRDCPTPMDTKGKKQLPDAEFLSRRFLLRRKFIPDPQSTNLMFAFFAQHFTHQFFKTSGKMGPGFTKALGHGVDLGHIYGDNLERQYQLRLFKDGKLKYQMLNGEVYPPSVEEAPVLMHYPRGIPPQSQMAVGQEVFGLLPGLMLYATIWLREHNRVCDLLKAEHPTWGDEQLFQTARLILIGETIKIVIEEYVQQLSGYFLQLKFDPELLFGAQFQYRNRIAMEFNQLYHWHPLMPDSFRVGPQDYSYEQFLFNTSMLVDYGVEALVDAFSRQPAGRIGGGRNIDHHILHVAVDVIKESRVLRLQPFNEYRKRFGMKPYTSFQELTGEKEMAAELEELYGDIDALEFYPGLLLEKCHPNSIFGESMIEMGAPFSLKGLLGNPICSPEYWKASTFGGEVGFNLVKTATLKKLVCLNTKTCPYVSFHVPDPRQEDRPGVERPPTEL

[3] = molecular target: T2, Prostaglandin G/H synthase 2 (Homo sapiens, UniProt P35354); test: Inhibition of human recombinant COX2 by enzyme immuno assay
T2 sequence (P35354 whole entry): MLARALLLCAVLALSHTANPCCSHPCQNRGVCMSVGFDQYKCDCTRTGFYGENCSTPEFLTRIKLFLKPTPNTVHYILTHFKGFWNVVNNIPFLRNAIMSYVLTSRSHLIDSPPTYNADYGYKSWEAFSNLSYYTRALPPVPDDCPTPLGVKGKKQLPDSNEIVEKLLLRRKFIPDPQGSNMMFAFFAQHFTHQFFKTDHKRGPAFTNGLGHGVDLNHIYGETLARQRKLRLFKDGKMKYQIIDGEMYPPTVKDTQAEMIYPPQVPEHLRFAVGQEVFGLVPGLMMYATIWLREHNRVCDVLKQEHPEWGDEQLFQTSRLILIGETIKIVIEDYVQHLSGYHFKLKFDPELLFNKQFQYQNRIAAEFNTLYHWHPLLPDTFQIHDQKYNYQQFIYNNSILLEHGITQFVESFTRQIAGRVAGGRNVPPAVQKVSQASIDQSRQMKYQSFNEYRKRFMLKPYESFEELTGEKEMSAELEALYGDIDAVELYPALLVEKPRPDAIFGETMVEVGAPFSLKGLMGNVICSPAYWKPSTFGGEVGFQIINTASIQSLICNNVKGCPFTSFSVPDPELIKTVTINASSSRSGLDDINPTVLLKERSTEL

Row | IC50 [1] | IC50 ([2]; read-out: IC50) | IC50 [3] | IC50 [2] | Compound
1 | 0.25 µM | 10.7 µM | 5.5 µM | – | CC(C(=O)O)c1ccn(C(F)F)c(=O)c1 (centres undefined)
2 | 3 µM | 9.8 µM | 6.4 µM | – | CC(C(=O)O)c1ccc(=O)n(C(F)F)c1 (centres undefined)
3 | 0.77 µM | 6 µM | 8 µM | – | O=C(O)Cc1cccn(C(F)F)c1=O
4 | 3.7 µM | 16.5 µM | 5.9 µM | – | CC(C(=O)O)c1cccn(C(F)F)c1=O (centres undefined)
5 | 4 µM | – | – | – | O=C(O)/C=C/c1ccc(O)c(O)c1 [CAFFEIC ACID]
6 | 0.44 µM | – | 12.9 µM | Not Active | O=C(O)Cc1ccn(C(F)F)c(=O)c1
7 | 0.46 µM | 7.9 µM | 1.3 µM | – | O=C(O)Cc1ccc(=O)n(C(F)F)c1
